Measurements taken from patent US7678803B2, “Quinazoline derivatives for the treatment of cancer” (Serenex, Inc., priority 2006, dated 2010).

System: PC-3
Assay: PC-3 cell proliferation assay (WST-1)
Type: cell-based
Conditions: Homo sapiens; inhibitory activity against PC-3 cell proliferation
Experimental: A panel of cancer cell lines is obtained from the DCTP Tumor Repository, National Cancer Institute (Frederick, Md.) or ATCC (Rockville, Md.). Cell cultures are maintained in Hyclone RPMI 1640 medium (Logan, Utah) supplemented with 10% fetal bovine serum and 20 mM HEPES buffer, final pH 7.2, at 37° C. with a 5% CO2 atmosphere. Cultures are maintained at sub-confluent densities. Human umbilical vein endothelial cells (HUVEC) are purchased from Clonetics, a division of Cambrex (Walkersville, Md.). Cultures are established from cryopreserved stocks using Clonetics EGM-2 medium supplemented with 20 mM HEPES, final pH 7.2, at 37° C. with a 5% CO2 atmosphere.
For proliferation assays, cells are seeded with the appropriate medium into 96 well plates at 1,000-2,500 cells per well, depending on the cell line, and are incubated overnight. The following day, test compound, DMSO solution (negative control), or Actinomycin D (positive control) is added to the appropriate wells as 10× concentrated stocks prepared in phosphate buffered saline. The cell plates are then incubated for an additional 2-5 days, depending on the cell line, to allow proliferation to occur. To measure cell density, 50 μL of WST-1 solution (Roche Applied Science, IN) diluted 1:5 in phosphate buffered saline is added to each well, and the cells incubated for an additional 1-5 hrs., again depending on the cell line. Optical density is determined for each well at […] using a Tecan GeniosPro plate reader (RTP, NC). The percentage of cell growth is determined by comparing the cell growth in the presence of test compounds to the cells treated with DMSO vehicle (control, 100% growth) and cells treated with Actinomycin D (10 μM, 0% growth). […]

Compound | IC50
CCCCSc1c(-n2cc(C)c3c2CC(C)(C)CC3=O)ccc2c(N)ncnc12 [Compound 54, 1-(4-amino-8-(butylthio)quinazolin-7-yl)-3,6,6-trimethyl-6,7-dihydro-1H-indol-4(5H)-one] | 0.5 to 5 µM
Cc1cn(-c2ccc3c(N)ncnc3c2SCCNCC(C)(C)C)c2c1C(=O)CC(C)(C)C2 [Compound 81, 1-(4-amino-8-(2-(neopentylamino)ethylthio)quinazolin-7-yl)-3,6,6-trimethyl-6,7-dihydro-1H-indol-4(5H)-one] | < 0.5 µM
CCOc1c(-n2cc(C)c3c2CC(C)(C)CC3=O)ccc2c(N)ncnc12 [Compound 62, 1-(4-amino-8-ethoxyquinazolin-7-yl)-3,6,6-trimethyl-6,7-dihydro-1H-indol-4(5H)-one] | 0.5 to 5 µM
CC1(C)CC(=O)c2c(CC3CC3)nn(-c3ccc4c(N)ncnc4c3)c2C1 [Compound 83, 1-(4-aminoquinazolin-7-yl)-3-(cyclopropylmethyl)-6,6-dimethyl-6,7-dihydro-1H-indazol-4(5H)-one] | 5 to 50 µM
Cc1cn(-c2ccc3c(N)ncnc3c2F)c2c1C(=O)CC(C)C2 (centres unmarked) [Compound 65, 1-(4-amino-8-fluoroquinazolin-7-yl)-3,6-dimethyl-6,7-dihydro-1H-indol-4(5H)-one] | 0.5 to 5 µM
COc1cc(COc2cc(-n3cc(C)c4c3CC(C)(C)CC4=O)cc3ncnc(N)c23)cc(OC)c1 [Compound 78, 1-(4-amino-5-(3,5-dimethoxybenzyloxy)quinazolin-7-yl)-3,6,6-trimethyl-6,7-dihydro-1H-indol-4(5H)-one] | 0.5 to 5 µM
CCCCSc1cc(-n2cc(C)c3c2CC(C)(C)CC3=O)cc2ncnc(N)c12 [Compound 73, 1-(4-amino-5-(butylthio)quinazolin-7-yl)-3,6,6-trimethyl-6,7-dihydro-1H-indol-4(5H)-one] | 5 to 50 µM
Cc1cc2c(n1-c1cnc3c(N)ncnc3c1)CC(C)(C)CC2=O [Compound 38, 1-(4-aminopyrido[3,2-d]pyrimidin-7-yl)-2,6,6-trimethyl-6,7-dihydro-1H-indol-4(5H)-one] | 5 to 50 µM
CC1(C)CC(=O)c2c(C(F)(F)F)nn(-c3ccc4c(N)ncnc4c3)c2C1 [Compound 51, 1-(4-aminoquinazolin-7-yl)-6,6-dimethyl-3-(trifluoromethyl)-6,7-dihydro-1H-indazol-4(5H)-one] | 5 to 50 µM
Cc1cn(-c2ccc3c(N)ncnc3c2)c2c1C(=O)CC(C)(C)C2 [Compound 39, 1-(4-aminoquinazolin-7-yl)-3,6,6-trimethyl-6,7-dihydro-1H-indol-4(5H)-one] | 0.5 to 5 µM
Cc1cn(-c2ccc3c(N)ncnc3c2F)c2c1C(=O)CC(C)(C)C2 [Compound 43, 1-(4-amino-8-fluoroquinazolin-7-yl)-3,6,6-trimethyl-6,7-dihydro-1H-indol-4(5H)-one] | 0.5 to 5 µM
Cc1nn(-c2ccc3c(N)ncc(Br)c3c2)c2c1C(=O)CC(C)(C)C2 [Compound 47, 1-(1-amino-4-bromoisoquinolin-6-yl)-3,6,6-trimethyl-6,7-dihydro-1H-indazol-4(5H)-one] | 5 to 50 µM
Cc1cn(-c2cnc3c(N)ncnc3c2)c2c1C(=O)CC(C)(C)C2 [Compound 66, 1-(4-aminopyrido[3,2-d]pyrimidin-7-yl)-3,6,6-trimethyl-6,7-dihydro-1H-indol-4(5H)-one] | 0.5 to 5 µM
Cc1cn(-c2ccc3c(N)ncnc3c2OCCN(C)C)c2c1C(=O)CC(C)(C)C2 [Compound 52, 1-(4-amino-8-(2-(dimethylamino)ethoxy)quinazolin-7-yl)-3,6,6-trimethyl-6,7-dihydro-1H-indol-4(5H)-one] | 5 to 50 µM

Second part, the compound after the results:

IC50 | Compound
0.5 to 5 µM | CC(=O)c1cnc(N)c2ccc(-n3cc(C)c4c3CC(C)(C)CC4=O)cc12 [Compound 107, 1-(4-acetyl-1-aminoisoquinolin-6-yl)-3,6,6-trimethyl-6,7-dihydro-1H-indol-4(5H)-one]
< 0.5 µM | Cc1cn(-c2cnc3c(N)nc(N)nc3c2)c2c1C(=O)CC(C)(C)C2 [Compound 139, 1-(2,4-diaminopyrido[3,2-d]pyrimidin-7-yl)-3,6,6-trimethyl-6,7-dihydro-1H-indol-4(5H)-one]
5 to 50 µM | Cc1cn(-c2ccc3c(N)ncc(C(N)=O)c3c2)c2c1C(=O)CC(C)(C)C2 [Compound 104, 1-amino-6-(3,6,6-trimethyl-4-oxo-4,5,6,7-tetrahydro-1H-indol-1-yl)isoquinoline-4-carboxamide]
0.5 to 5 µM | Cc1cn(-c2ccc3c(N)ncnc3c2SCCNC(C)(C)C)c2c1C(=O)CC(C)(C)C2 [Compound 110, 1-(4-amino-8-(2-(tert-butylamino)ethylthio)quinazolin-7-yl)-3,6,6-trimethyl-6,7-dihydro-1H-indol-4(5H)-one]
< 0.5 µM | Cc1cn(-c2ccc3c(C)nc(N)nc3c2)c2c1C(=O)CC(C)(C)C2 [Compound 128, 1-(2-amino-4-methylquinazolin-7-yl)-3,6,6-trimethyl-6,7-dihydro-1H-indol-4(5H)-one]
5 to 50 µM | Cc1cn(-c2ccc3c(N)ncc(N)c3c2)c2c1C(=O)CC(C)(C)C2 [Compound 121, 1-(1,4-diaminoisoquinolin-6-yl)-3,6,6-trimethyl-6,7-dihydro-1H-indol-4(5H)-one]
0.5 to 5 µM | Cc1cn(-c2ccc3c(N)ncnc3c2OC2CCOCC2)c2c1C(=O)CC(C)(C)C2 [Compound 133, 1-(4-amino-8-(tetrahydro-2H-pyran-4-yloxy)quinazolin-7-yl)-3,6,6-trimethyl-6,7-dihydro-1H-indol-4(5H)-one]
< 0.5 µM | Cc1cn(-c2ccc3c(O)ncnc3c2)c2c1C(=O)CC(C)(C)C2 [Compound 90, 1-(4-hydroxyquinazolin-7-yl)-3,6,6-trimethyl-6,7-dihydro-1H-indol-4(5H)-one]
0.5 to 5 µM | Cc1cn(-c2cc(F)c3c(N)nc(N)nc3c2)c2c1C(=O)CC(C)(C)C2 [Compound 126, 1-(2,4-diamino-5-fluoroquinazolin-7-yl)-3,6,6-trimethyl-6,7-dihydro-1H-indol-4(5H)-one]
< 0.5 µM | Cc1c2c(n(-c3ccc4c(N)ncnc4c3)c1C)CC(C)(C)CC2=O [Compound 92, 1-(4-aminoquinazolin-7-yl)-2,3,6,6-tetramethyl-6,7-dihydro-1H-indol-4(5H)-one]
0.5 to 5 µM | CC1(C)CC(=O)c2c(C(F)F)nn(-c3ccc4c(N)ncc(C#N)c4c3)c2C1 [Compound 94, 1-amino-6-(3-(difluoromethyl)-6,6-dimethyl-4-oxo-4,5,6,7-tetrahydro-1H-indazol-1-yl)isoquinoline-4-carbonitrile]
5 to 50 µM | C/C(=N\O)c1cnc(N)c2ccc(-n3cc(C)c4c3CC(C)(C)CC4=O)cc12 [Compound 102, (E)-1-(1-amino-4-(1-(hydroxyimino)ethyl)isoquinolin-6-yl)-3,6,6-trimethyl-6,7-dihydro-1H-indol-4(5H)-one]
